Experiments:
Plasmodium berghei = experiment: Antimalarial activity against Plasmodium berghei ANKA; format: functional, organism-based
Plasmodium falciparum [1] = experiment: Antimalarial activity against Plasmodium falciparum assessed as reduction in parasite growth incubated for 48 hrs by Giemsa staining based analysis; format: functional, organism-based
Plasmodium falciparum [2] = experiment: Antiplasmodial activity against Plasmodium falciparum Dd2 assessed as reduction in parasitic growth incubated for 48 hrs by SYBR Green staining based fluorescence analysis; format: functional, organism-based; conditions: Dd2, 48 h
Plasmodium falciparum [3] = experiment: Antiplasmodial activity against Plasmodium falciparum 3D7 assessed as reduction in parasite growth by Lactate dehydrogenase assay; format: functional, organism-based
Plasmodium falciparum [4] = experiment: Antiplasmodial activity against Plasmodium falciparum 3D7 assessed as inhibition of parasitic growth; format: functional, organism-based
Plasmodium falciparum [5] = experiment: Antimalarial activity against Plasmodium falciparum Dd2 assessed as reduction in parasitic growth; format: functional, organism-based
Plasmodium falciparum [6] = experiment: Antiplasmodial activity against chloroquine-sensitive Plasmodium falciparum 3D7 assessed as parasitic growth inhibition incubated for 72 hrs by SYBR Green staining based fluorescence analysis; format: functional, organism-based; conditions: 3D7, 72 h
Plasmodium falciparum [7] = experiment: Antiplasmodial activity against chloroquine-resistant Plasmodium falciparum W2 assessed as parasitic growth inhibition incubated for 72 hrs by SYBR Green staining based fluorescence analysis; format: functional, organism-based; conditions: W2, 72 h
[8] = Cytotoxicity against African green monkey Vero cells assessed as reduction in cell viability measured after 24 hrs; format: toxicity, cell-based; conditions: African green monkey (Chlorocebus sabaeus)
Plasmodium falciparum [9] = experiment: Antimalarial activity against Plasmodium falciparum D6 assessed as reduction in parasite growth incubated for 48 hrs by LDH assay; format: functional, organism-based; conditions: D6, 48 h
Plasmodium falciparum [10] = experiment: Antimalarial activity against Plasmodium falciparum W2 assessed as reduction in parasite growth incubated for 48 hrs by LDH assay; format: functional, organism-based; conditions: W2, 48 h
[11] = Cytotoxicity against African green monkey Vero cells; format: toxicity, cell-based; conditions: chlorocebus sabaeus
Plasmodium falciparum [12] = experiment: Antimalarial activity against Plasmodium falciparum assessed as parasitic growth inhibition; format: functional, organism-based
[13] = Cytotoxicity against African green monkey Vero cells by MTT assay; format: toxicity, cell-based; conditions: African green monkey (Chlorocebus sabaeus)
Plasmodium falciparum [14] = experiment: Antiplasmodial activity against Plasmodium falciparum NF54; format: functional, organism-based
Plasmodium falciparum [15] = experiment: Antimalarial activity against chloroquine-sensitive Plasmodium falciparum 3D7 assessed as reduction in parasite growth incubated for 48 hrs by SYBR green assay; format: functional, organism-based; conditions: 3D7, 48 h
Plasmodium falciparum [16] = experiment: Antimalarial activity against multi-drug resistant Plasmodium falciparum K1 assessed as reduction in parasite growth incubated for 48 hrs by SYBR green assay; format: functional, organism-based; conditions: K1, 48 h
HepG2 = experiment: Cytotoxicity against human HepG2 cells assessed as reduction in cell viability incubated for 24 hrs by MTT assay; format: functional
Plasmodium falciparum [17] = experiment: Antimalarial activity against chloroquine-sensitive Plasmodium falciparum 3D7 by SYBR green I assay; format: functional, organism-based
Plasmodium falciparum [18] = experiment: Antimalarial activity against chloroquine-resistant Plasmodium falciparum Dd2 assessed as reduction in parasitic growth incubated for 72 hrs by Giemsa-staining based microscopic analysis; format: functional, organism-based; conditions: Dd2, 72 h
Plasmodium falciparum [19] = experiment: Antimalarial activity against Plasmodium falciparum 3D7 assessed as reduction in parasite growth incubated for 48 hrs by Giemsa-staining counting based microscopic analysis; format: functional, organism-based; conditions: 3D7, 48 h
Plasmodium falciparum [20] = experiment: Antimalarial activity against Plasmodium falciparum K1 assessed as reduction in parasitic growth incubated for 48 hrs by Giemsa-staining counting based microscopic analysis; format: functional, organism-based; conditions: K1, 48 h
[21] = Cytotoxicity against African green monkey Vero cells assessed as reduction in cell viability incubated for 48 hrs by MTT assay; format: toxicity, cell-based; conditions: chlorocebus sabaeus
Plasmodium falciparum [22] = experiment: Antimalarial activity against Plasmodium falciparum 3D7 assessed as inhibition of parasite growth incubated for 96 hrs; format: functional, organism-based; conditions: 3D7, 96 h
Plasmodium falciparum [23] = experiment: Antimalarial activity against chloroquine-resistant Plasmodium falciparum Dd2 assessed as inhibition of parasite growth; format: functional, organism-based
Plasmodium falciparum [24] = experiment: Antiplasmodial activity against chloroquine-sensitive Plasmodium falciparum 3D7 infected in human erythrocyte incubated for 72 hrs by SYBR green I staining based fluorescence assay; format: functional, organism-based; conditions: 3D7, Erythrocyte
Plasmodium falciparum [25] = experiment: Antiplasmodial activity against Plasmodium falciparum Dd2 infected in human Erythrocyte measured after 72 hrs by SYBR green fluorescence dye based microplate reader analysis; format: functional, organism-based

For `C[C@H](Cc1ccccc1)Nc1ccnc2cc(Cl)ccc12`, the IC50 (Plasmodium berghei) was 490 nM.
Compound `Clc1ccc2c(NC3Cc4ccccc4C3)ccnc2c1` has an IC50 (Plasmodium berghei) of 600 nM.
`C/C(=N\C(=S)NNc1ccnc2cc(Cl)ccc12)c1ccc2ccccc2c1` gave an IC50 (Plasmodium falciparum [1]) of 79.9 µM.
Work on `Clc1ccc2c(Nc3nc[nH]n3)ccnc2c1` yielded an IC50 (Plasmodium falciparum [1]) of 42.6 µM.
For `COc1ccc2nc(/C=C/c3ccncc3)cc(N3CCCCC3)c2c1`, the IC50 (Plasmodium falciparum [2]) was 4.9 µM.
With `CCOC(=O)/C=C/c1cccc(Nc2ccnc3cc(Cl)ccc23)c1` the IC50 (Plasmodium falciparum [3]) was 14.4 µM.
Work on `N#Cc1ccc(-c2ccc(-c3ccc(CNCCCCCCCCNc4ccnc5cc(Cl)ccc45)cc3)s2)cc1` yielded an IC50 (Plasmodium falciparum [4]) of 97.3 nM and an IC50 (Plasmodium falciparum [5]) of 174 nM.
Compound `COC(=O)/C=C/c1ccc(Nc2ccnc3cc(Cl)ccc23)cc1` has an IC50 (Plasmodium falciparum [3]) of 3.22 µM.
Work on `Clc1ccc2c(NCCNCc3csc4ccccc34)ccnc2c1` yielded an IC50 (Plasmodium falciparum [4]) greater than 500 nM and an IC50 (Plasmodium falciparum [5]) of 14.4 nM.
Work on `OB1OCc2ccc(OCc3cn(CCN4CCN(c5ccnc6cc(Cl)ccc56)CC4)nn3)cc21` yielded an IC50 (Plasmodium falciparum [6]) of 5.31 µM, an IC50 (Plasmodium falciparum [7]) of 4.86 µM and an IC50 at 24 h [8] of 82.4 µM.
`N=C(N=C(N)N)SCCCNc1cc(C(F)(F)F)nc2c(C(F)(F)F)cccc12` gave an IC50 (Plasmodium falciparum [9]) of 5.54 µM, an IC50 (Plasmodium falciparum [10]) of 7.21 µM and a CC50 [11] greater than 9.17 µM.
Compound `COc1ccc2nc(/C=C/c3ccncc3)cc(N3CCCC3)c2c1` has an IC50 (Plasmodium falciparum [2]) of 0.367 µM.
In the case of `Fc1ccc2scc(-c3ccc(CNCCCNc4ccnc5ccccc45)cc3)c2c1`, the IC50 (Plasmodium falciparum [4]) is reported as 18.8 nM and the IC50 (Plasmodium falciparum [5]) is reported as 73.3 nM.
In the case of `Clc1ccc2c(Nc3cccnc3)ccnc2c1`, the IC50 (Plasmodium falciparum [12]) is reported as 4.35 µM.
In the case of `CC1(C)c2ccccc2-c2cc(Cl)c(NC(=O)C(=O)NCCCNc3ccnc4cc(Cl)ccc34)cc21`, the IC50 [13] is reported as 17.7 µM and the IC50 (Plasmodium falciparum [14]) is reported as 326 nM.
`NC(S)=NNc1ccnc2cc(Cl)ccc12` showed an IC50 (Plasmodium falciparum [1]) of 25.4 µM.
For `N#Cc1ccc2c(CNCCCNc3ccnc4cc(Cl)ccc34)csc2c1`, the IC50 (Plasmodium falciparum [4]) was 50.2 nM and the IC50 (Plasmodium falciparum [5]) was 18.6 nM.
In the case of `OB1OCc2ccc(OCc3cn(CCNc4ccnc5cc(Cl)ccc45)nn3)cc21`, the IC50 (Plasmodium falciparum [6]) is reported as 4.15 µM, the IC50 (Plasmodium falciparum [7]) is reported as 3.78 µM and the IC50 at 24 h [8] is reported as greater than 100 µM.
For `Clc1ccc2c(NNc3cccnc3)ccnc2c1`, the IC50 (Plasmodium falciparum [12]) was 2.21 µM.
Compound `NCCNc1ccnc2cc(Cl)ccc12` has an IC50 (Plasmodium falciparum [15]) of 273 nM, an IC50 (Plasmodium falciparum [16]) of 218 nM and an MLD50 (HepG2) of 179 µM.
`O=C(/C=C/c1cccc(Nc2ccnc3cc(Cl)ccc23)c1)OC1CCCCC1` showed an IC50 (Plasmodium falciparum [3]) of 16.4 µM.
Compound `CCCC(=O)NCCCC(C)Nc1ccnc2cc(Cl)ccc12` (stereo unspecified) has an IC50 (Plasmodium falciparum [17]) of 627 nM and an IC50 (Plasmodium falciparum [18]) of 588 µM.
For `Clc1ccc2c(Nc3ccncc3)ccnc2c1`, the IC50 (Plasmodium falciparum [12]) was 4.23 µM.
For `O=C(CNCCCNc1ccnc2cc(Cl)ccc12)Nc1cc2c(cc1Cl)-c1ccccc1C21CCCC1`, the IC50 [13] was 12.5 µM and the IC50 (Plasmodium falciparum [14]) was 204 nM.
For `CCOC(=O)c1nn(CCNc2ccnc3cc(Cl)ccc23)c2c1C(c1ccco1)C(C#N)=C(N)O2` (stereo unspecified), the EC50 (Plasmodium falciparum [19]) was 113 nM, the EC50 (Plasmodium falciparum [20]) was 1.61 µM and the CC50 at 48 h [21] was 84.5 µM.
Compound `O=C(O)CNc1ccnc2cc(Cl)ccc12` has an IC50 (Plasmodium falciparum [15]) greater than 10000 nM, an IC50 (Plasmodium falciparum [16]) greater than 10000 nM and an MLD50 (HepG2) greater than 1000 µM.
Compound `N=C(N=C(N)N)SCCCNc1ccnc2cc(Cl)ccc12` has an IC50 (Plasmodium falciparum [10]) of 2.13 µM and a CC50 [11] greater than 11.4 µM.
Compound `CCOC(=O)c1nn(CCNc2ccnc3cc(Cl)ccc23)c2c1C(c1ccc(O)cc1)C(C#N)=C(N)O2` (stereo unspecified) has an EC50 (Plasmodium falciparum [19]) of 26 nM, an EC50 (Plasmodium falciparum [20]) of 7.12 µM and a CC50 at 48 h [21] of 9.24 µM.
In the case of `COc1ccc2nc(/C=C/c3ccncc3)cc(N3CCN(CCO)CC3)c2c1`, the IC50 (Plasmodium falciparum [2]) is reported as greater than 10 µM.
`O=C(NCCCNc1ccnc2cc(Cl)ccc12)C(=O)Nc1cc2c(cc1Cl)-c1ccccc1C2` showed an IC50 [13] of 26 µM and an IC50 (Plasmodium falciparum [14]) of 437 nM.
`C#CCNc1ccnc2cc(Cl)ccc12` gave an IC50 (Plasmodium falciparum [15]) of 377 nM, an IC50 (Plasmodium falciparum [16]) of 405 nM and an MLD50 (HepG2) of 407 µM.
Work on `N=C(N=C(N)N)SCCCCNc1cc(C(F)(F)F)nc2c(C(F)(F)F)cccc12` yielded an IC50 (Plasmodium falciparum [9]) greater than 8.93 µM, an IC50 (Plasmodium falciparum [10]) greater than 8.93 µM and a CC50 [11] greater than 8.93 µM.
Compound `O=C(O)C(Cc1c[nH]c2ccccc12)Nc1ccnc2cc(Cl)ccc12` (stereo unspecified) has an IC50 (Plasmodium falciparum [22]) of 8 µM and an IC50 (Plasmodium falciparum [23]) of 5000 nM.
Compound `O=C(O)/C=C/c1ccc(Nc2ccnc3cc(Cl)ccc23)cc1` has an IC50 (Plasmodium falciparum [3]) of 18.5 µM.
For `C[C@H]1[C@H](OC(=O)CCC(=O)NCCNc2ccnc3cc(Cl)ccc23)O[C@@H]2O[C@@]3(C)CC[C@H]4[C@H](C)CC[C@@H]1[C@@]24OO3`, the EC50 (Plasmodium falciparum [24]) was 2.7 nM and the EC50 (Plasmodium falciparum [25]) was 1 nM.
For `CC(C)Cc1ccc(C(C)C(=O)NCCNc2ccnc3cc(Cl)ccc23)cc1` (stereo unspecified), the IC50 (Plasmodium falciparum [22]) was 0.125 µM and the IC50 (Plasmodium falciparum [23]) was 201 nM.

— ChEMBL document CHEMBL5344418, “Recent developments in antimalarial activities of 4-aminoquinoline derivatives” (Eur J Med Chem, 2023)
